pEC50: −log10 of the molar value.
Experiments:
[1] = target: T1, human GLP-1 receptor (Homo sapiens, UniProt P43220); assay: Receptor binding assay: [125I]GLP-1 (aa 7-36) equilibrium radioligand binding; conditions: membranes from HEK-293 or CHO cells expressing the human GLP-1 receptor; room temp 120 min
T1 construct: expressed in transfected cells; host or cells: HEK-293 or CHO cells (membranes)
Method: Reactions were carried out in 96-well plates. Compound was diluted in 20% DMSO/water. The final assay concentration ranging from 0.1 nM to 100 uM in 2% final DMSO concentration was used. […] Plates were washed 5 times with cold 25 mM Tris-HCL, pH 7.5 containing 0.05% bovine serum albumin (BSA). Following filtration, 50 uL of Microscint PS (Packard part no. 6013631) was added, plates were sealed with TopSeal-A adhesive seals (Packard part no. 6005185). ^125I isotope bound to the Unifilter-96 GF/C plates was counted using a TopCount instrument (Packard).
Percent inhibition of [^125I] […] The IC50 values were calculated by fitting the data using parameters for a sigmoidal dose response, variable slope nonlinear regression (GraphPAD Prizm, San Diego, Calif.) according to the equation: Y=Bottom+(Top-Bottom)/(1+10^((Log EC50−X)*HillSlope)) wherein, X is the logarithm of concentration and Y is the response, and Y starts at Bottom and goes to Top with a sigmoid shape. This is identical to the four parameter logistic equation.

[2] = target: T2, cloned human GLP-1 receptor (Homo sapiens, UniProt P43220); assay: Functional cell-based assay: cAMP functional assay; conditions: for Emax: 0.5 h, percentage relative to maximal GLP-1-induced cAMP accumulation, na = not active in the assay, read-out: % activation
T2 construct: expressed in transfected cells; host or cells: CHO or HEK-293 cells
Procedure, shortened: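 Monolayer cells incubated 30 min at 37 °C with compounds (0.0001–100 μM) in IMDM containing 100 μM RO 20-1724 PDE inhibitor, 0.1% BSA and 2% DMSO. cAMP measured by HTRF.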

T1 sequence (P43220 24-463): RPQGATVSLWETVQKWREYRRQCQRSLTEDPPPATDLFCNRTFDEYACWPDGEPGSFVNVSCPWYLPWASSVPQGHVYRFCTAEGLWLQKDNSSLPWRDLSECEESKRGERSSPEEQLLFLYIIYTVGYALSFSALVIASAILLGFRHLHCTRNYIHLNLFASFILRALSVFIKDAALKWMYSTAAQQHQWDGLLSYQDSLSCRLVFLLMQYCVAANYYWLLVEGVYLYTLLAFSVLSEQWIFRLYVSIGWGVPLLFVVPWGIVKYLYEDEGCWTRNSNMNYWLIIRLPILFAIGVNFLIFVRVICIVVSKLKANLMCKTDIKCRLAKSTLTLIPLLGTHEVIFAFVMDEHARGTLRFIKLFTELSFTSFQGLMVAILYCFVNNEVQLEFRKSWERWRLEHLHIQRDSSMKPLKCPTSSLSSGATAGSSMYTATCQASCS
T2 sequence (P43220 24-463): as above

Row | Structure (SMILES) | % binding vs [125I]GLP-1 [1] | pEC50 [2] | Emax [2]
1 | CC[C@H](c1ccccc1)N1Cc2cc3c(cc2C[C@H]1C(=O)N[C@@H](Cc1ccc(-c2ccc(C#N)cc2)cc1)C(=O)O)N(C)C(=O)[C@@H](c1ccc(OCc2ccc(Cl)c(Cl)c2)cc1)O3 [Example 89] | 44% |  | 
2 | N#Cc1ccc(-c2ccc(C[C@H](NC(=O)[C@@H]3Cc4cc5c(cc4CN3C(=O)c3ccccc3)OC(c3ccc(OCc4ccc(Cl)c(Cl)c4)cc3)C(=O)N5)C(=O)O)cc2)cc1 (stereo partly drawn) [Example 15, (S)-2-({(S)-6-Benzoyl-3-[4-(3,4-dichloro-benzyloxy)-phenyl]-2-oxo-2,3,5,6,7,8-hexahydro-1H-4-oxa-1,6-diaza-anthracene-7-carbonyl}-amino)-3-(4′-cyano-biphenyl-4-yl)-propionic acid] | 68% | 6.84 | 99.6%
3 | CC[C@H](c1ccccc1)N1Cc2cc3c(cc2C[C@H]1C(=O)N[C@@H](Cc1ccc(-c2ccc(C#N)cc2)cc1)C(=O)O)N(C)C(=O)[C@H](c1ccc(OCc2ccc(Cl)c(Cl)c2)cc1)O3 [Example 88, (S)-3-(4′-Cyano-biphenyl-4-yl)-2-{[(3S,7S)-3-[4-(3,4-dichloro-benzyloxy)-phenyl]-1-methyl-2-oxo-6-((R)-1-phenyl-propyl)-2,3,5,6,7,8-hexahydro-1H-4-oxa-1,6-diaza-anthracene-7-carbonyl]-amino}-propionic acid] | 60% |  | 
4 | CC[C@@H](c1ccccc1)N1Cc2cc3c(cc2C[C@H]1C(=O)N[C@@H](Cc1ccc(-c2ccc(F)cc2)cc1)C(=O)O)N(C)C(=O)[C@H](c1ccc(OCc2ccc(Cl)c(Cl)c2)cc1)O3 [Example 95, (S)-2-{[(3S,7S)-3-[4-(3,4-Dichloro-benzyloxy)-phenyl]-1-methyl-2-oxo-6-((S)-1-phenyl-propyl)-2,3,5,6,7,8-hexahydro-1H-4-oxa-1,6-diaza-anthracene-7-carbonyl]-amino}-3-(4′-fluoro-biphenyl-4-yl)-propionic acid] | 65% | 6.44 | 49%
5 | N#Cc1ccc(-c2ccc(C[C@H](NC(=O)[C@@H]3Cc4cc5c(cc4CN3Cc3ccccn3)OC(c3ccc(OCc4ccc(Cl)c(Cl)c4)cc3)C(=O)N5)C(=O)O)cc2)cc1 (stereo partly drawn) [Example 39, (S)-3-(4′-Cyano-biphenyl-4-yl)-2-({(S)-3-[4-(3,4-dichloro-benzyloxy)-phenyl]-2-oxo-6-pyridin-2-ylmethyl-2,3,5,6,7,8-hexahydro-1H-4-oxa-1,6-diaza-anthracene-7-carbonyl}-amino)-propionic acid] | 60% | 6.89 | 56%

From patent US7906507B2, “Oxadiazoanthracene compounds for the treatment of diabetes” (TransTech Pharma, Inc., priority 2008, dated 2011)
